From US10723705B2, “Heterocyclic compounds and uses thereof” (Incyte Corporation, priority 2015, dated 2020)

Each compound was assayed against Human recombinant Histone Deacetylase 8 (HDAC8) (Homo sapiens (Human), UniProt Q9BY41) (assay: HDAC8 Enzymatic Assay (HDAC-Glo I/II luminescence)). Settings: HDAC8; read-out: IC50.
Type: biochemical
How it was run: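 Human recombinant HDAC8 (1.5 nM final) preincubated with compound for 30 min, then reacted with 50 μM Boc-GAK(Ac)-aminoluciferin plus trypsin-containing developer for 15 min at room temperature, pH 8.0, 0.5% DMSO. Luminescence read-out; IC50 from percent control activity versus log concentration.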

Chain of Human recombinant Histone Deacetylase 8 (HDAC8) (Q9BY41 whole entry): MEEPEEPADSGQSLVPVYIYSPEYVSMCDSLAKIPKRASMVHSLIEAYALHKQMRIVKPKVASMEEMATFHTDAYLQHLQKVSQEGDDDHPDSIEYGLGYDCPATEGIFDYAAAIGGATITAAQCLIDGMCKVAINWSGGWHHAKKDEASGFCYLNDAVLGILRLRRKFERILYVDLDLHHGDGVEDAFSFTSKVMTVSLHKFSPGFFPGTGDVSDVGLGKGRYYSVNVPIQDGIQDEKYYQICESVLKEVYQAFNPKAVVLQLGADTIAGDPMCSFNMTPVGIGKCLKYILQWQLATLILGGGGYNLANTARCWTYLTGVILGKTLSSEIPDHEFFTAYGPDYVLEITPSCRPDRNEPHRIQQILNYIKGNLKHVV

Q: How did the IC50 turn out when O=C(NCCC1CCOCC1)c1cccc2c(C#CC3CC3)n(C(Cc3ccccc3)C(=O)NO)nc12 (stereo not shown) [Compound I-0197, 2-[1-Benzyl-2-(hydroxyamino)-2-oxethyl]-3-(cyclopropylethynyl)-N-[2-(tetrahydro-2H-pyran-4-yl)ethyl]-2H-indazole-7-carboxamide] was run?
A: Its IC50 is 16 nM.

Q: With Cn1nc(C(Cc2ccccc2)C(=O)NO)c2ccc(Cl)cc21 (stereo not shown) [Compound I-0202, 2-(6-Chloro-1-methyl-1H-indazol-3-yl)-N-hydroxy-3-phenylpropanamide] as the compound, how does the IC50 read?
A: The IC50 was 39 nM.

Q: Which IC50 does the source give for Cn1nc(C(Cc2ccccc2)C(=O)NO)c2ccc(-c3cncnc3)cc21 (stereo not shown) [Compound I-0204, N-hydroxy-2-(1-methyl-6-pyrimidin-5-yl-1H-indazol-3-yl)-3-phenylpropanamide] here?
A: Its IC50 is 84 nM.

Same assay, conditions: class symbols, Table 14; read-out: HDAC8 IC50

Q: For O=C(NO)C(Cc1ccccc1)n1cc2cccc(CN3CCC(N4CCOCC4)CC3)c2n1 (stereo not shown) [Compound I-0185, N-hydroxy-2-(7-((4-morpholinopiperidin-1-yl)methyl)-2H-indazol-2-yl)-3-phenylpropanamide], which IC50 is on record?
A: The IC50 was over 500 nM.

Q: How did the IC50 turn out when O=C(NO)C(Cc1ccccc1)n1cc2cccc(CN3CCC4(CC3)COC4)c2n1 (stereo not shown) [Compound I-0186, 2-(7-(2-oxa-7-azaspiro[3.5]nonan-7-ylmethyl)-2H-indazol-2-yl)-N-hydroxy-3-phenylpropanamide] was run?
A: Its IC50 is over 500 nM.

Q: With O=C(NO)C(Cc1ccccc1)n1cc2cccc(CN3CCC4(CCOCC4)CC3)c2n1 (stereo not shown) [Compound I-0187, 2-(7-(3-oxa-9-azaspiro[5.5]undecan-9-ylmethyl)-2H-indazol-2-yl)-N-hydroxy-3-phenylpropanamide] as the compound, how does the IC50 read?
A: Its IC50 is over 500 nM.

Q: For CN1CCN(Cc2cccc3cn(C(Cc4ccccc4)C(=O)NO)nc23)CC1 (stereo not shown) [Compound I-0188, N-hydroxy-2-(7-((4-methylpiperazin-1-yl)methyl)-2H-indazol-2-yl)-3-phenylpropanamide], which IC50 is on record?
A: Its IC50 is over 500 nM.

Q: How did the IC50 turn out when O=C(NO)C(Cc1ccccc1)n1cc2cccc(CN3CCC(F)(F)CC3)c2n1 (stereo not shown) [Compound I-0189, 2-(7-((4,4-difluoropiperidin-1-yl)methyl)-2H-indazol-2-yl)-N-hydroxy-3-phenylpropanamide] was run?
A: The IC50 was 200 to 500 nM.

Q: For O=C(NO)C(Cc1ccccc1)n1cc2cccc(CN3CCCC(F)(F)C3)c2n1 (stereo not shown) [Compound I-0190, 2-(7-((3,3-difluoropiperidin-1-yl)methyl)-2H-indazol-2-yl)-N-hydroxy-3-phenylpropanamide], which IC50 is on record?
A: Its IC50 is 200 to 500 nM.

Q: How did the IC50 turn out when O=C(NO)C(Cc1ccccc1)n1cc2cccc(CN3CCC(C(F)(F)F)CC3)c2n1 (stereo not shown) [Compound I-0191, N-hydroxy-3-phenyl-2-(7-((4-(trifluoromethyl)piperidin-1-yl)methyl)-2H-indazol-2-yl)propanamide] was run?
A: The IC50 was over 500 nM.

Q: Which IC50 does the source give for CN1CCN(Cc2cccc3cn(C(Cc4ccccc4)C(=O)NO)nc23)CC1=O (stereo not shown) [Compound I-0192, N-hydroxy-2-(7-((4-methyl-3-oxopiperazin-1-yl)methyl)-2H-indazol-2-yl)-3-phenylpropanamide] here?
A: Its IC50 is 50 to 200 nM.

Q: Which IC50 does the source give for O=C(NO)C(Cc1ccccc1)n1ccc2nc(Cl)ccc21 (stereo not shown) [Compound I-0193, 2-(5-chloro-1H-pyrrolo[3,2-b]pyridin-1-yl)-N-hydroxy-3-phenylpropanamide] here?
A: Its IC50 is over 500 nM.

Q: Which IC50 does the source give for O=C(NO)C(Cc1ccccc1)n1ccc2cc(Cl)ncc21 (stereo not shown) [Compound I-0194, 2-(5-chloro-1H-pyrrolo[2,3-c]pyridin-1-yl)-N-hydroxy-3-phenylpropanamide] here?
A: Its IC50 is over 500 nM.

Q: For O=C(NO)C(Cc1ccccc1)n1ccc2cc(Cl)cnc21 (stereo not shown) [Compound I-0195, 2-(5-chloro-1H-pyrrolo[2,3-b]pyridin-1-yl)-N-hydroxy-3-phenylpropanamide], which IC50 is on record?
A: The IC50 was 200 to 500 nM.

Q: O=C(NO)C(Cc1ccccc1)n1ccc2c(Cl)nccc21 (stereo not shown) [Compound I-0196, 2-(4-chloro-1H-pyrrolo[3,2-c]pyridin-1-yl)-N-hydroxy-3-phenylpropanamide] was tested. Which IC50 did it give?
A: Its IC50 is 200 to 500 nM.

Q: With O=C(NCCC1CCOCC1)c1cccc2c(C#CC3CC3)n(C(Cc3ccccc3)C(=O)NO)nc12 (stereo not shown) [Compound I-0197, 2-[1-Benzyl-2-(hydroxyamino)-2-oxethyl]-3-(cyclopropylethynyl)-N-[2-(tetrahydro-2H-pyran-4-yl)ethyl]-2H-indazole-7-carboxamide] as the compound, how does the IC50 read?
A: Its IC50 is at most 50 nM.

Q: How did the IC50 turn out when O=C(NO)C(Cc1ccccc1)n1cc2ccnc(-c3cncnc3)c2n1 (stereo not shown) [Compound I-0198, N-hydroxy-3-phenyl-2-(7-(pyrimidin-5-yl)-2H-pyrazolo[3,4-c]pyridin-2-yl)propanamide] was run?
A: The IC50 was at most 50 nM.

Q: Which IC50 does the source give for Cn1nccc1-c1nccc2cn(C(Cc3ccccc3)C(=O)NO)nc12 (stereo not shown) [Compound I-0199, N-hydroxy-2-(7-(1-methyl-1H-pyrazol-5-yl)-2H-pyrazolo[3,4-c]pyridin-2-yl)-3-phenylpropanamide] here?
A: The IC50 was at most 50 nM.

Q: Which IC50 does the source give for O=C(NO)C(Cc1ccccc1)n1cc2c(n1)CCCC2 (stereo not shown) [Compound I-0200, N-hydroxy-3-phenyl-2-(4,5,6,7-tetrahydro-2H-indazol-2-yl)propanamide] here?
A: Its IC50 is 200 to 500 nM.

Q: With O=C(NO)C(Cc1ccccc1)n1ncc2c1CCCC2 (stereo not shown) [Compound I-0201, N-hydroxy-3-phenyl-2-(4,5,6,7-tetrahydro-1H-indazol-1-yl)propanamide] as the compound, how does the IC50 read?
A: The IC50 was 200 to 500 nM.

Q: Cn1nccc1-c1ccc2c(C(Cc3ccccc3)C(=O)NO)nn(C)c2c1 (stereo not shown) [Compound I-0203, N-hydroxy-2-(1-methyl-6-(1-methyl-1H-pyrazol-5-yl)-1H-indazol-3-yl)-3-phenylpropanamide] was tested. Which IC50 did it give?
A: Its IC50 is 50 to 200 nM.

Q: For Cn1nc(C(Cc2ccccc2)C(=O)NO)c2ccc(-c3cncnc3)cc21 (stereo not shown) [Compound I-0204, N-hydroxy-2-(1-methyl-6-pyrimidin-5-yl-1H-indazol-3-yl)-3-phenylpropanamide], which IC50 is on record?
A: Its IC50 is 50 to 200 nM.

Q: For Cn1nc(C(Cc2ccccc2)C(=O)NO)c2ccc(-c3ccncc3)cc21 (stereo not shown) [Compound I-0205, N-hydroxy-2-(1-methyl-6-(pyridin-4-yl)-1H-indazol-3-yl)-3-phenylpropanamide], which IC50 is on record?
A: The IC50 was 50 to 200 nM.

Q: O=C(NO)C(Cc1ccccc1)n1nc2c(c1C#CC1CC1)CCCC2 (stereo not shown) [Compound I-0206, 2-(3-(cyclopropylethynyl)-4,5,6,7-tetrahydro-2H-indazol-2-yl)-N-hydroxy-3-phenylpropanamide] was tested. Which IC50 did it give?
A: The IC50 was at most 50 nM.

Q: For O=C(NO)C(Cc1ccccc1)n1nc2c(-c3cncnc3)nccc2c1C#CC1CC1 (stereo not shown) [Compound I-0207, 2-(3-(cyclopropylethynyl)-7-(pyrimidin-5-yl)-2H-pyrazolo[3,4-c]pyridin-2-yl)-N-hydroxy-3-phenylpropanamide], which IC50 is on record?
A: Its IC50 is at most 50 nM.
